From patent publication US20130245110A1, “USE FOR CANNABINOIDS” (priority 2008, published 2013)
Values joined by “and” are separate entries in the source; they are usually repeats but may differ in a detail not shown here. Equal values may be shown once.

What was measured:
rat isolated aortae = assay: In vitro vascular studies by wire myography; conditions: for Time-dependent relaxation of pre-contracted aorta: 2 h (120 min)
C57B1/6 ob/ob mouse = assay: Fed plasma HDL-cholesterol; format: in vivo; conditions: ob/ob mice; for Fed HDL cholesterol day 28: individual values; for percentage HDL cholesterol day 28: HDL as percentage of total cholesterol
Procedure: The following are a battery of tests used to elicit the effects of drugs on diseases including type I or II diabetes, obesity, dyslipidaemia, related metabolic disorders and cardiovascular disease. • a) Body weight: Bodyweights of all mice were measured twice weekly during the study. • b) Food intake: Food intake was measured by weight difference taking account of food wastage in the bottom of the cage. • c) Measurement of water consumption: Water intake was calculated daily for each animal, during the treatment period, by weight difference of the water bottle. • d) Oral Glucose Tolerance Test (OGTT): Glucose was dissolved in water (3 g/10 ml) and given to the mice orally at a rate of 3 g/kg. […] Blood samples were also taken at −30 minutes for insulin analysis. • e) Blood Glucose analysis: Duplicate 20 μl samples of blood of were taken for each individual sample and placed in a 96-well assay plate. To each well was added 180 μl aliquots of glucose oxidase reagent. Samples were mixed and then left for approximately 30 minutes. Samples were then analysed automatically using a SpectraMax-250 and SoftMax Pro software. • f) Plasma preparation: Blood was collected for the measurement of i) plasma insulin, ii) cholesterol, iii) free fatty acids or iv) triglyceride concentration. • i. Plasma insulin analysis: Plasma insulin was measured using 5 μl of plasma, compared with a mouse insulin standard using a 96-well micro-assay plate • ii. Plasma cholesterol analysis: To each sample was added 200 μl of infinity cholesterol liquid stable reagent. The samples were mixed and incubated for 5 minutes before reading at dual wavelengths of 500 and 660 nm. • iii. Plasma free fatty acids: 5 μl samples of plasma were measured into a 96-well assay plate, to which was added 0.2 ml of reagents NEFA C • iv. Plasma triglycerides analysis: To each well 200 μl aliquots of triglycerides reagent. […] Comparison with a calibrated standard allowed identification of types of tissue by their density. Dedicated software was using to quantify amounts of bone and fat. The mice were lightly anaesthetised, sufficient to keep them quiescent during this non-invasive technique. • h) Energy expenditure measurements: Energy expenditure was measured by open circuit indirect calorimetry with mice in their home cages. For studies of 24 h energy expenditure, mice were dosed with their allocated treatment and then measurements commenced. […] Plasma leptin was measured in fed mice using the Crystal Chem Elisa assay. • j) Plasma adiponectin: Adiponectin exerts some of its weight reduction effects via the brain. This is similar to the action of leptin, but the two hormones perform complementary actions, and can have additive effects. Plasma adiponectin was measured in overnight fasted mice using the 96-well B-Bridge Elisa assay. • k) Plasma HDL-cholesterol: Plasma HDL-cholesterol was measured in fed mice using the kit from Trinity Biotech. • l) 24 h blood glucose profile: This was determined in order to ensure that changes in the diurnal control of blood glucose were detected. Thus blood samples were obtained at three hourly intervals throughout a continuous 24 h period. • m) Plasma haemoglobin AIC: Samples (10 μl) were analysed using the AIC. […] The homogenate was then extracted overnight at 4° C. and centrifuged at 2000 g for 5 min. • o) Pancreatic islet histology: […] sections were cut using a Leica RM2125 rotary microtome, transferred to positively-charged glass slides and dried overnight at 42° C. Morphology was assessed using hematoxylin and eosin staining. • p) Liver glycogen: After centrifugation (3000×g for 15 min), an aliquot of the supernatant (10 μl) is assayed using the glucose oxidase method. […] 1 ml of chloroform is added and tubes vortexed and left at 4° C. for 2 h with vortexing every 30 min. 200 μl of 0.9% sodium chloride is added and after thorough vortexing, the mixture is centrifuged at 300×g for 5 min.

3T3L1 cells = assay: Induction of adipocyte differentiation (Oil red O); format: cell-based; conditions: treated for 8 days
Procedure: In vitro vascular studies were carried out in rat isolated aortae by wire myography. PPARγ activation was investigated using reporter gene assays, a PPARγ competition-binding assay and an adipogenesis assay.
Cells were fixed and stained with Oil red O to identify fat droplets, to the presence of which indicates differentiation of fibroblasts into adipocytes. […] […].

[1] = 0.3 mg·kg−1 daily oral gavage (combination: both 0.3)
[2] = 3.0 mg·kg−1 daily oral gavage (combination: both 3.0)

Structure (SMILES)	Time without effect on tone (rat isolated aortae; pre-contracted aortae, 10 μM) [min]	Time-dependent relaxation of pre-contracted aorta (rat isolated aortae; rat aorta, 10 μM) [% relaxation]	Fed HDL cholesterol day 28 (C57B1/6 ob/ob mouse; [1])	Fed HDL cholesterol day 28 (C57B1/6 ob/ob mouse; [2])	percentage HDL cholesterol day 28 (C57B1/6 ob/ob mouse; [1])	percentage HDL cholesterol day 28 (C57B1/6 ob/ob mouse; [2])	Potency and maximal contractile response to re-introduction of calcium (rat isolated aortae; calcium free, high potassium Krebs-Hensleit solution, CBD from 1 μM to 30 μM)	Vasorelaxant effect in arteries contracted with high potassium buffer (rat isolated aortae; compared with control)	Vasorelaxant effect, tone induced with U46619 in calcium free buffer (rat isolated aortae; compared with control)	Vasorelaxant effect in endothelium-denuded versus control aortae (rat isolated aortae; rat aorta)	Residual relaxation (vasorelaxant effect minus effect of vehicle and time) (rat isolated aortae; rat aorta, 10 μM, after 2 h) [% relaxation]	Basal tension over time (rat isolated aortae; rat aorta, 2 h) [g]	Time-dependent vascular responses in the presence of AM251 (rat isolated aortae; rat aorta, CB1 antagonist AM251 1 μM)	Residual vasorelaxant effects in the presence of SR144528 (rat isolated aortae; rat aorta, CB2 antagonist SR144528 1 μM, between 45 min to 90 min)	Residual vasorelaxant effect in the presence of L-NAME (rat isolated aortae; rat aorta, L-NAME 300 μM, versus control conditions)	Residual vasorelaxant effect in the presence of GW9662 (rat isolated aortae; rat aorta, PPARγ antagonist GW9662 1 μM, after 1 h of incubation)	Vascular response over time after pre-treatment with PTX or capsaicin (rat isolated aortae; rat arteries, PTX 200 ng ml−1, 2 h or capsaicin 10 μM, 1 h)	Differentiation of fibroblasts into adipocytes (Oil Red O staining of fat droplets) (3T3L1 cells)	Fed HDL cholesterol day 28 (C57B1/6 ob/ob mouse; 3.0 mg·kg−1 daily oral gavage (combination: both 3.0), listed as Pure CBD)
CCCc1cc(O)c2c(c1)OC(C)(C)[C@@H]1CCC(C)=C[C@@H]21 [THCV, tetrahydrocannabivarin]	> 105	28.7±4.6	2.16 (3×) and 2.35 and 2.33 and 2.21 and 2.25 and 2.14	2.17 and 2.16 and 2.24 and 2.51 and 2.98 and 2.94 and 2.57 and 2.28	30.4% and 25.1% and 33.6% and 39.3% and 37.5% and 34.3% and 37.9% and 38.0%	34.5% and 31.1% and 34.0% and 40.4% and 41.3% and 45.6% and 33.6% and 32.4%													
C=C(C)[C@@H]1CCC(C)=C[C@H]1c1c(O)cc(CCCCC)cc1O [CBD, cannabidiol]		69.7±4.0		increasing the amount and 3.31 and 3.00 and 3.36 and 3.63 and 2.98 and 3.38 and 3.18			significantly reduced in a concentration-dependent manner	no difference	significantly blunted	similar	50.1±3.3	-0.03 ± 0.01	did not significantly affect	significantly inhibited	not different	significantly reduced	no effect	signs of fat droplet accumulation were apparent at all concentrations tested	increasing the plasma HDL-cholesterol concentration
